Reference: patent US12503436B2, “Compounds and compositions for treating conditions associated with STING activity” (NOVARTIS PHARMA AG, priority 2021, dated 2025)

Biological target: STING (Homo sapiens, UniProt Q86WV6, G230A/H232R/R293Q/R71H)
Assay: STING reporter assay in THP1-Dual KO-IFNAR2 cells (2′3′cGAMP stimulation, luciferase reporter)
Format: cell-based
Conditions: 15 μM 2′3′cGAMP stimulation, 24 h, read-out: Pharmaron, THP1_IFNAR2 STING 24 h Luci Normalized: GeoMean EC50
Method in brief: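 THP1-Dual KO-IFNAR2 cells (2×10E6 cells/mL) with compounds at 0.0017-100 μM final, stimulated with 15 μM final 2′3′cGAMP delivered by Lipofectamine 2000; 24 h at 37 °C. Luciferase in supernatant read with QUANTI-Luc Plus; EC50 derived from luminescence.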

Chain of STING (Q86WV6 whole entry R71H/G230A/H232R/R293Q): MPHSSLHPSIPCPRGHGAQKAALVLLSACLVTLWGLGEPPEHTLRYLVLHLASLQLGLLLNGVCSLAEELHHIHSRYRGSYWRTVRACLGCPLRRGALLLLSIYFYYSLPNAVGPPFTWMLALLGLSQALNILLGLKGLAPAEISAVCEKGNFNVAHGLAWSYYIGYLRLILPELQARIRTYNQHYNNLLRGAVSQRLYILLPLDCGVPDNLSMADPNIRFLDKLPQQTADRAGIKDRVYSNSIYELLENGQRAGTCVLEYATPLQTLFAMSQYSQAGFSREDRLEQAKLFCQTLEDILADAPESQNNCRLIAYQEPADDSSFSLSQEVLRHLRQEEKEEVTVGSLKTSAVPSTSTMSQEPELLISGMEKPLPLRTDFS

Row | EC50 [nM] | SMILES
1 | 40 to 200 | CC1(C(=O)Nc2c[nH]c3ccc(OCCc4ccc(C(F)(F)F)cc4)cc23)CCC1 [Compound 235, 1-methyl-N-(5-(4-(trifluoromethyl)phenethoxy)-1H-indol-3-yl)cyclobutane-1-carboxamide]
2 | 40 to 200 | CC1(C)CC(C(=O)Nc2c[nH]c3ccc(OCCc4ccc(C(F)(F)F)cc4)cc23)C1 [Compound 236, 3,3-dimethyl-N-(5-(4-(trifluoromethyl)phenethoxy)-1H-indol-3-yl)cyclobutane-1-carboxamide]
3 | 40 to 200 | CC1(C(=O)Nc2c[nH]c3ccc(OCCc4ccc(C(F)(F)F)cc4)cc23)CCOCC1 [Compound 237, 4-methyl-N-(5-(4-(trifluoromethyl)phenethoxy)-1H-indol-3-yl)tetrahydro-2H-pyran-4-carboxamide]
4 | 40 to 200 | CC1(C(=O)Nc2c[nH]c3ccc(OCCc4ccc(C(F)(F)F)cc4)cc23)COC1 [Compound 238, 3-methyl-N-(5-(4-(trifluoromethyl)phenethoxy)-1H-indol-3-yl)oxetane-3-carboxamide]
5 | 40 to 200 | O=C(Nc1c[nH]c2ccc(OCCc3ccc(C(F)(F)F)cc3)cc12)C1CCOCC1 [Compound 239, N-(5-(4-(trifluoromethyl)phenethoxy)-1H-indol-3-yl)tetrahydro-2H-pyran-4-carboxamide]
6 | 200 to 1000 | O=C(Nc1c[nH]c2ccc(CC(O)Cc3ccc(C(F)(F)F)cc3)cc12)C1CC1 (stereo not shown) [Compound 240, N-(5-(2-hydroxy-3-(4-(trifluoromethyl)phenyl)propyl)-1H-indol-3-yl)cyclopropanecarboxamide]
7 | 200 to 1000 | CC(=O)Nc1c[nH]c2ccc(OCc3ccc(C(F)(F)F)cc3)cc12 [Compound 247, N-(5-((4-(trifluoromethyl)benzyl)oxy)-1H-indol-3-yl)acetamide]
8 | 1000 to 5000 | CC(=O)Nc1c[nH]c2ccc(OCCc3ccc(C(F)(F)F)cc3)nc12 [Compound 248, N-(5-(4-(trifluoromethyl)phenethoxy)-1H-pyrrolo[3,2-b]pyridin-3-yl)acetamide]
9 | 200 to 1000 | O=C(Nc1c[nH]c2ccc(OCCc3ccc(C(F)(F)F)cc3)cc12)C1CC(F)(F)C1 [Compound 249, 3,3-difluoro-N-(5-(4-(trifluoromethyl)phenethoxy)-1H-indol-3-yl)cyclobutane-1-carboxamide]
10 | 40 to 200 | CC1(C(=O)Nc2c[nH]c3ccc(OCCc4ccc(C(F)(F)F)cc4)cc23)CC1 [Compound 251, 1-methyl-N-(5-(4-(trifluoromethyl)phenethoxy)-1H-indol-3-yl)cyclopropane-1-carboxamide]
11 | 40 to 200 | O=C(Nc1c[nH]c2ccc(OCCc3ccc(C(F)(F)F)cc3)cc12)C1CC1 [Compound 252, N-(5-(4-(trifluoromethyl)phenethoxy)-1H-indol-3-yl)cyclopropanecarboxamide]
12 | 1000 to 5000 | CC(=O)Nc1c[nH]c2ccc(OCCc3cnc(N4CCN(CC(F)(F)F)CC4)c(F)c3)cc12 [Compound 253, N-(5-(2-(5-fluoro-6-(4-(2,2,2-trifluoroethyl)piperazin-1-yl)pyridin-3-yl)ethoxy)-1H-indol-3-yl)acetamide]
13 | 40 to 200 | CC(=O)Nc1c[nH]c2ccc(OCCc3cnc(N4CCC(F)(F)CC4)c(F)c3)cc12 [Compound 254, N-(5-(2-(6-(4,4-difluoropiperidin-1-yl)-5-fluoropyridin-3-yl)ethoxy)-1H-indol-3-yl)acetamide]
14 | 1000 to 5000 | CC(=O)Nc1c[nH]c2ccc(CCOc3ccc(C(F)(F)F)cc3)nc12 [Compound 255, N-(5-(2-(4-(trifluoromethyl)phenoxy)ethyl)-1H-pyrrolo[3,2-b]pyridin-3-yl)acetamide]
15 | 200 to 1000 | CC(=O)Nc1c[nH]c2ccc(CCSc3ccc(C(F)(F)F)cc3)cc12 [Compound 256, N-(5-(2-((4-(trifluoromethyl)phenyl)thio)ethyl)-1H-indol-3-yl)acetamide]
16 | 200 to 1000 | CC(=O)Nc1c[nH]c2ccc(OCCC3CCN(c4ccc(C(F)(F)F)cn4)CC3)cc12 [Compound 257, N-(5-(2-(1-(5-(trifluoromethyl)pyridin-2-yl)piperidin-4-yl)ethoxy)-1H-indol-3-yl)acetamide]
17 | 1000 to 5000 | CC(=O)Nc1c[nH]c2c(C)cc(CCOc3ccc(C(F)(F)F)cc3)nc12 [Compound 259, N-(7-methyl-5-(2-(4-(trifluoromethyl)phenoxy)ethyl)-1H-pyrrolo[3,2-b]pyridin-3-yl)acetamide]
18 | 40 to 200 | CC(=O)Nc1c[nH]c2ccc(OCCC34CC(c5ccccc5)(C3)C4)cc12 [Compound 262, N-(5-(2-(3-phenylbicyclo[1.1.1]pentan-1-yl)ethoxy)-1H-indol-3-yl)acetamide]
19 | 1000 to 5000 | CC(=O)Nc1c[nH]c2c(C)cc(CCOc3ccc(C(F)(F)F)cc3)cc12 [Compound 264, N-(7-methyl-5-(2-(4-(trifluoromethyl)phenoxy)ethyl)-1H-indol-3-yl)acetamide]
20 | 5000 to 100000 | CC(=O)Nc1c[nH]c2ccc(CNS(=O)(=O)c3ccc(C(F)(F)F)cc3)cc12 [Compound 265, N-(5-(((4-(trifluoromethyl)phenyl)sulfonamido)methyl)-1H-indol-3-yl)acetamide]
21 | 1000 to 5000 | CC(=O)Nc1c[nH]c2ncc(OCCc3ccc(C(F)(F)F)cc3)cc12 [Compound 267, N-(5-(4-(trifluoromethyl)phenethoxy)-1H-pyrrolo[2,3-b]pyridin-3-yl)acetamide]
22 | 1000 to 5000 | CC(=O)Nc1c[nH]c2ccc(COCC3CCN(CC(F)(F)F)CC3)cc12 [Compound 268, N-(5-(((1-(2,2,2-trifluoroethyl)piperidin-4-yl)methoxy)methyl)-1H-indol-3-yl)acetamide]
23 | 1000 to 5000 | CC(=O)Nc1c[nH]c2c(F)cc(CCOc3ccc(C(F)(F)F)cc3)cc12 [Compound 270, N-(7-fluoro-5-(2-(4-(trifluoromethyl)phenoxy)ethyl)-1H-indol-3-yl)acetamide]
24 | 1000 to 5000 | CC(=O)Nc1c[nH]c2ncc(COCc3ccc(C(F)(F)F)cc3)cc12 [Compound 271, N-(5-(((4-(trifluoromethyl)benzyl)oxy)methyl)-1H-pyrrolo[2,3-b]pyridin-3-yl)acetamide]
25 | 1000 to 5000 | CC(=O)Nc1c[nH]c2c(C)cc(COCc3ccc(C(F)(F)F)cc3)cc12 [Compound 272, N-(7-methyl-5-(((4-(trifluoromethyl)benzyl)oxy)methyl)-1H-indol-3-yl)acetamide]
26 | 40 to 200 | COCC(=O)Nc1c[nH]c2ccc(COc3ccc(C(F)(F)F)cc3)cc12 [Compound 273, 2-methoxy-N-(5-((4-(trifluoromethyl)phenoxy)methyl)-1H-indol-3-yl)acetamide]

Row | SMILES | EC50 [nM]
27 | COCCC(=O)Nc1c[nH]c2ccc(O[C@H]3C[C@H](c4ccc(C(F)(F)F)cc4)C3)cc12 [Compound 241, 3-methoxy-N-(5-((1r,3r)-3-(4-(trifluoromethyl)phenyl)cyclobutoxy)-1H-indol-3-yl)propanamide] | 40 to 200
28 | CO[C@H]1C[C@H](C(=O)Nc2c[nH]c3ccc(O[C@H]4C[C@H](c5ccc(C(F)(F)F)cc5)C4)cc23)C1 [Compound 242, trans-3-methoxy-N-(5-(trans-3-(4-(trifluoromethyl)phenyl)cyclobutoxy)-1H-indol-3-yl)cyclobutane-1-carboxamide] | 40 to 200
29 | O=C(Nc1c[nH]c2ccc(O[C@H]3C[C@@H](c4ccc(C(F)(F)F)cc4)C3)cc12)C1CN(CC(F)(F)F)C1 [Compound 243, 1-(2,2,2-trifluoroethyl)-N-(5-(cis-3-(4-(trifluoromethyl)phenyl)cyclobutoxy)-1H-indol-3-yl)azetidine-3-carboxamide] | 40 to 200
30 | O=C(Nc1c[nH]c2ccc(O[C@H]3C[C@H](c4ccc(C(F)(F)F)cc4)C3)cc12)C1CN(CC(F)(F)F)C1 [Compound 244, 1-(2,2,2-trifluoroethyl)-N-(5-(trans-3-(4-(trifluoromethyl)phenyl)cyclobutoxy)-1H-indol-3-yl)azetidine-3-carboxamide] | 40 to 200
31 | CO[C@H]1C[C@@H](C(=O)Nc2c[nH]c3ccc(O[C@H]4C[C@@H](c5ccc(C(F)(F)F)cc5)C4)cc23)C1 [Compound 245, cis-3-methoxy-N-(5-(cis-3-(4-(trifluoromethyl)phenyl)cyclobutoxy)-1H-indol-3-yl)cyclobutane-1-carboxamide] | 40 to 200
32 | CO[C@H]1C[C@@H](C(=O)Nc2c[nH]c3ccc(O[C@H]4C[C@H](c5ccc(C(F)(F)F)cc5)C4)cc23)C1 [Compound 246, cis-3-methoxy-N-(5-(trans-3-(4-(trifluoromethyl)phenyl)cyclobutoxy)-1H-indol-3-yl)cyclobutane-1-carboxamide] | 40 to 200
33 | COCC(=O)Nc1c[nH]c2ccc(O[C@H]3C[C@H](c4ccc(C(F)(F)F)cc4)C3)cc12 [Compound 258, 2-methoxy-N-(5-(trans-3-(4-(trifluoromethyl)phenyl)cyclobutoxy)-1H-indol-3-yl)acetamide] | 40 to 200
34 | COCC(=O)Nc1c[nH]c2ccc(O[C@H]3C[C@@H](c4ccc(C(F)(F)F)cc4)C3)cc12 [Compound 260, 2-methoxy-N-(5-(cis-3-(4-(trifluoromethyl)phenyl)cyclobutoxy)-1H-indol-3-yl)acetamide] | 200 to 1000
35 | CC1(C(=O)Nc2c[nH]c3ccc(O[C@H]4C[C@H](c5ccc(C(F)(F)F)cc5)C4)cc23)CC1 [Compound 261, 1-methyl-N-(5-(trans-3-(4-(trifluoromethyl)phenyl)cyclobutoxy)-1H-indol-3-yl)cyclopropane-1-carboxamide] | 40 to 200
36 | CC1(C(=O)Nc2c[nH]c3ccc(O[C@H]4C[C@@H](c5ccc(C(F)(F)F)cc5)C4)cc23)CC1 [Compound 263, 1-methyl-N-(5-(cis-3-(4-(trifluoromethyl)phenyl)cyclobutoxy)-1H-indol-3-yl)cyclopropane-1-carboxamide] | 200 to 1000
37 | O=C(Nc1c[nH]c2ccc(O[C@H]3C[C@@H](c4ccc(C(F)(F)F)cc4)C3)cc12)C1CC1 [Compound 266, N-(5-(cis-3-(4-(trifluoromethyl)phenyl)cyclobutoxy)-1H-indol-3-yl)cyclopropanecarboxamide] | 40 to 200
